Laboratory results from EP2030621A1, “Novel substituted pyrimidines as cysteine protease inhibitors” (GLAXO GROUP LIMITED, priority 2007, dated 2009).
pIC50: −log10 of the molar value. Structures can show the parent of a compound that is named as a salt. Where two headings read alike, the source gives them in different places.

How the values were obtained:
[1] = system: Plasmodium falciparum parasite; assay: Whole cell assay: whole cell activity against the parasite; type: cell-based; conditions: Plasmodium falciparum
Falcipain-3 = Falcipain-3 (Plasmodium falciparum, UniProt Q8IIL0); assay: Falcipain-3 enzymatic assay (fluorogenic peptide substrate, quenched endpoint read); type: biochemical
Falcipain-3, sequence (Q8IIL0 243-492): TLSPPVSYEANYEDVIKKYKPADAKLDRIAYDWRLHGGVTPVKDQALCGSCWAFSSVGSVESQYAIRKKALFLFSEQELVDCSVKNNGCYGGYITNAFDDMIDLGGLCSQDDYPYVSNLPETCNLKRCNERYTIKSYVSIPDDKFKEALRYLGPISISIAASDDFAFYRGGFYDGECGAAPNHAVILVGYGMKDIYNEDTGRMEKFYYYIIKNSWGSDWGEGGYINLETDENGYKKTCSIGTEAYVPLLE
Procedure: (§1) 1 Determination of Falcipain-2, Falcipain-3, Vivapain-2, Cathepsin K Cathepsin S, Cathepsin L, and Cathepsin B proteolytic catalytic activity
(§2) Assays for Falcipain-2, Faicipain-3, and Vivapain-2 are carried out with parasitic recombinant enzymes. Cathepsins K, S, L, and B are carried out with human recombinant enzymes. Standard assay conditions for the determination of kinetic constants used a fluorogenic peptide substrate, typically H-D-VLR-AFC (Falcipain-2, Falcipain-3, Vivapain-2), Z-FR-AFC (Cathepsin K, L, B), or KQKLR-AMC (Cathepsin S) and are determined in 100 mM sodium acetate, pH 5.5, containing 10 mM DTT and 0.5 mM CHAPS (Falcipain-2, Falcipain-3, Vivapain-2), and 100 mM sodium acetate, pH 5.5, containing 5 mM L-cysteine, 1mM CHAPS and 5mM EDTA (Cathepsin K, L, B), or 50mM MES, pH 6.5, containing 0.5mM CHAPS, 10mM L-CYS, 5mM EDTA (Cathepsin S). Stock substrate solutions are prepared at 20 mM in DMSO. The activity assays contained 30 uM substrate (Falcipain-2, Falcipain-3, Vivapain-2), 20 uM substrate (Cathepsin K), 25uM substrate (Cathepsin B), 5uM substrate (Cathepsin L), and 30uM substrate (Cathepsin S). All assays contained 1% DMSO. […] All assays are conducted at ambient temperature as end point assays being quenched after 60 minutes with the exception of Cathepsin S at 90 minutes, with 16.6 uM E-64 in 1% DMSO. Product formation (AFC or AMC) is determined from fluorescence (excitation at 405nm; emission at 530nm, AFC, or excitation at 360 nm; emission at 460 nm, AMC) monitored with a LJL Aquest (Molecular Devices) fluorescent plate reader. In the case of kinetic reads (used in mechanism of action studies), the reaction is not quenched but is read in the plate reader every 3 minutes for approximately 90 minutes. In addition, the mechanism of action studies for Falcipain-2 utilize Z-LR-AMC as the substrate. Product formation is determined from the fluorescence of AMC, measured with a LJL Acquest (Molecular Devices) fluorescent plate reader (excitation at 360nm; emission at 460nm).
(§3) Potential inhibitors are evaluated using the quenched read (endpoint) method. Assays are carried out in the presence of variable concentrations of test compound. Reactions are initiated by addition of enzyme and substrate to wells containing inhibitor stamped in 100% DMSO. For endpoint assays, the reaction is quenched with the addition of E64. Dose response data is fit to an IC50 curve with preset fitting tools according to equation 1: y = a + (b-a)/(1 + (10^x /10^c ())^d ) [formula] where y is the response at a particular inhibitor concentration x, a is the minimum response value, b is the maximum response value, c is the IC50, and d is the slope of the IC50 curve. […]. For a more direct measurement of the KI and the binding mechanism, we performed mechanism of action studies that included a titration of substrate and inhibitor with a kinetic read. […]

Falcipain-2 = Falcipain-2 (Plasmodium falciparum, UniProt Q8I6U4); assay: Falcipain-2 enzymatic assay (fluorogenic peptide substrate, quenched endpoint read); type: biochemical
Falcipain-2, sequence (Q8I6U4 244-484): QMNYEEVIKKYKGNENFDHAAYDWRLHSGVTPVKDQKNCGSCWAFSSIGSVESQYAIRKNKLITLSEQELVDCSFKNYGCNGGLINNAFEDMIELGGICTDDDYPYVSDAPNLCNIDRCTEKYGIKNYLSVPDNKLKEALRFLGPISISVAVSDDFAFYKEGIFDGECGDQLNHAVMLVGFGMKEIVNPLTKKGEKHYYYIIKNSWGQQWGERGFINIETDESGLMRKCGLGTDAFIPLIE
Procedure: as §1, §2, §3

[2] = parasitic recombinant enzyme, 30 uM H-D-VLR-AFC, pH 5.5, quenched after 60 minutes, read-out: Falcipain-2 (IC50)
[3] = parasitic recombinant enzyme, 30 uM H-D-VLR-AFC, pH 5.5, quenched after 60 minutes, read-out: Falcipain-3 (IC50)

| SMILES | pIC50 [1] | pIC50 (Falcipain-3) | pIC50 (Falcipain-2) | pIC50 (Falcipain-2; [2]) | pIC50 (Falcipain-3; [3]) |
| --- | --- | --- | --- | --- | --- |
| CN1CCN(C2CCN(Cc3ccc(C(=O)NN(c4nc(C#N)ncc4Br)C4CCOCC4)cc3)CC2)CC1 [Example 29, N'-(5-Bromo-2-cyano-4-pyrimidinyl)-4-{[4-(4-methyl-1-piperazinyl)-1-piperidinyl]methyl}-N'-(tetrahydro-2H-pyran-4-yl)benzohydrazide trifluoroacetate] | 6.82 to 7.82 | 6.82 to 7.82 | – | – | – |
| CN1CCN(Cc2ccc(C(=O)NN(c3nc(C#N)ncc3Br)C3CCOCC3)cc2)CC1 [Example 42, N'-(5-bromo-2-cyano-4-pyrimidinyl)-4-[(4-methyl-1-piperazinyl)methyl]-N'-(tetrahydro-2H-pyran-4-yl)benzohydrazide trifluoroacetate] | 6.82 to 7.82 | – | 8.60 to 9.00 | – | – |
| CC(C)CCN(C)Cc1ccc(C(=O)NN(c2nc(C#N)ncc2Cl)C2CCCC2)cc1 [Example 63, N'-(5-chloro-2-cyano-4-pyrimidinyl)-N'-cyclopentyl-4-{[methyl(3-methylbutyl)amino]methyl}benzohydrazide trifluoroacetate] | 7.82 to 8.60 | – | – | > 9.00 | 7.82 to 8.60 |
| CN1CCN(Cc2ccc(C(=O)NN(c3nc(C#N)ncc3Br)C3CCCC3)cc2)CC1 [Example 1, N'-(5-bromo-2-cyano-4-pyrimidinyl)-N'-cyclopentyl-4-[(4-methyl-1-piperazinyl)methyl]benzohydrazide trifluoroacetate] | 6.82 to 7.82 | 6.82 to 7.82 | – | – | – |
| CN1CCN(Cc2ccc(C(=O)NN(c3nc(C#N)ncc3Cl)C3CCCC3)cc2)CC1 [Example 50, N'-(5-chloro-2-cyano-4-pyrimidinyl)-N'-cyclopentyl-4-[(4-methyl-1-piperazinyl)methyl]benzohydrazide trifluoroacetate] | 6.82 to 7.82 | – | 8.60 to 9.00 | – | – |
| CN1CCN(C(=O)C2CCN(Cc3ccc(C(=O)NN(c4nc(C#N)ncc4Cl)C4CCOCC4)cc3)CC2)CC1 [Example 36, N'-(5-Chloro-2-cyano-4-pyrimidinyl)-4-({4-[(4-methyl-1-piperazinyl)carbonyl]-1-piperidinyl}methyl)-N'-(tetrahydro-2H-pyran-4-yl)henzohydrazide trifluoroacetate] | 6.82 to 7.82 | – | 8.60 to 9.00 | – | – |
| CC(=O)N1CCC(N(NC(=O)c2ccc(CN3CCC(N4CCN(C)CC4)CC3)cc2)c2nc(C#N)ncc2Br)CC1 [Example 38, N'-(1-acetyl-4-piperidinyl)-N'-(5-bromo-2-cyano-4-pyrimidinyl)-4-{[4-(4-methyl-1-piperazinyl)-1-piperidinyl]methyl}benzohydrazide trifluoroacetate] | 6.60 to 6.82 | 6.82 to 7.82 | – | – | – |
| CC(=O)N1CCC(N(NC(=O)c2ccc(CN3CCN(C)CC3)cc2)c2nc(C#N)ncc2Br)CC1 [Example 37, N'-(1-acetyl-4-piperidinyl)-N'-(5-bromo-2-cyano-4-pyrimidinyl)-4-[(4-methyl-1-piperazinyl)methyl]benzohydrazide trifluoroacetate] | 6.82 to 7.82 | – | – | > 9.00 | 6.82 to 7.82 |
